The values below are quoted from earlier work in patent US20080103118A1, “COMPOSITION FOR IMPROVING BLOOD CHOLESTEROL LEVELS” (IOMEDIX DEVELOPMENT INTERNATIONAL SRL, priority 2006, published 2008).

The conditions of the series: 117 individuals, 63 Niacin, 54 placebo.

Consider `O=C(O)c1cccnc1` [Niacin, nicotinic acid], for which the “high-density lipoprotein cholesterol (HDL-C)” value was “increase”, the “low-density lipoprotein cholesterol (LDL-C)” value was “decrease”, the total cholesterol result was “decrease” and the triglyceride levels entry is recorded as “decrease”.
